Broadly, the IC50 is the point on the concentration scale where inhibition reaches its midpoint. A higher IC50 goes with a need for much substance.

Sequence of c-Kit kinase (P10721 26-976): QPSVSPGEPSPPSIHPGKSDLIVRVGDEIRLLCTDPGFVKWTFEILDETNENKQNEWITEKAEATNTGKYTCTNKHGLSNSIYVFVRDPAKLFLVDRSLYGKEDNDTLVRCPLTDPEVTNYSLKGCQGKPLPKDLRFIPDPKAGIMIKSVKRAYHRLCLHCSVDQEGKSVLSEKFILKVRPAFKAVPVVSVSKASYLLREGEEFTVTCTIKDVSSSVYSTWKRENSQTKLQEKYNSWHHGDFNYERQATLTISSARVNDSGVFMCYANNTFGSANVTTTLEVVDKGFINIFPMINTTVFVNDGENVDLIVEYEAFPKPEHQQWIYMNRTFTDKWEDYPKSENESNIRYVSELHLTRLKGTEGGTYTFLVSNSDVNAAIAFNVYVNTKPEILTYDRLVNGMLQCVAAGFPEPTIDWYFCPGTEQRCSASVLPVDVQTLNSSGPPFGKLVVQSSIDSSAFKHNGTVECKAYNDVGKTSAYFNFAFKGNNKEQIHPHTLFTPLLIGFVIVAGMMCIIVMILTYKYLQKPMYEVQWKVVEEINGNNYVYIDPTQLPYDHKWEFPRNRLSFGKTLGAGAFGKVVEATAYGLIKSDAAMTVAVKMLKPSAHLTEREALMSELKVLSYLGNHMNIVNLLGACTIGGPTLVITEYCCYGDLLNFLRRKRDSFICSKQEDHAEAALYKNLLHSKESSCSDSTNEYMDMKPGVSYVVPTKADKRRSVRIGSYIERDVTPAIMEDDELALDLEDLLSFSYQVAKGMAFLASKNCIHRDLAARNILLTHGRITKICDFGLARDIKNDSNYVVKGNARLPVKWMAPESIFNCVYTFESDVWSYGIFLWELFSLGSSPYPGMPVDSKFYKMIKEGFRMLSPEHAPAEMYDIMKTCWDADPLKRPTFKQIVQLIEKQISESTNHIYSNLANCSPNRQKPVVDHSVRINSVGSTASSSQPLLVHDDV

The assay has as its target c-Kit kinase (Homo sapiens (Human), UniProt P10721). As to the kind of experiment: c-Kit biochemical assay (AlphaScreen kinase activity). Summed up: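 AlphaScreen: c-Kit phosphorylates biotin-(E4Y)3 (100 nM) at 10 μM ATP, pH 7.2 HEPES buffer with Mg/Mn, 5% DMSO, 1 h room temperature; streptavidin donor and PY30 acceptor beads detect product. Second format: 100 μM ATP, 30 nM biotin-(E4Y)10, pH 7.5. IC50 from 8-point 1:3 dilution curves.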
In general terms: Bead proximity is the source of the signal in Alpha formats.
As to `COc1ncc(-c2cc3c(N4CCC(c5nc(C)c(-c6ccccc6)[nH]5)CC4)ncnc3[nH]2)cn1` [P-3045, 6-(2-methoxypyrimidin-5-yl)-4-[4-(4-methyl-5-phenyl-1H-imidazol-2-yl)-1-piperidyl]-7H-pyrrolo[2,3-d]pyrimidine], the concentration for half-maximal inhibition (IC50) was in the range of 10 to 300 µM.

Compound `Cc1nc(C2CCN(c3ncnc4[nH]c(-c5cnn(C)c5)cc34)CC2)[nH]c1-c1ccccc1` [P-3046, 4-[4-(4-methyl-5-phenyl-1H-imidazol-2-yl)-1-piperidyl]-6-(1-methylpyrazol-4-yl)-7H-pyrrolo[2,3-d]pyrimidine] came in with an IC50 of 0.0001 to 1 µM.

For `Cc1nc(C2CCN(c3ncnc4[nH]c(-c5ccc(C#N)cc5)cc34)CC2)[nH]c1-c1ccccc1` [P-3047, 4-[4-[4-(4-methyl-5-phenyl-1H-imidazol-2-yl)-1-piperidyl]-7H-pyrrolo[2,3-d]pyrimidin-6-yl]benzonitrile], the half-maximal inhibitory concentration (IC50) was 1 to 10 µM.

Take `Cc1nc(C2CCN(c3ncnc4[nH]c(-c5ccc(S(N)(=O)=O)cc5)cc34)CC2)[nH]c1-c1ccccc1` [P-3048, 4-[4-[4-(4-methyl-5-phenyl-1H-imidazol-2-yl)-1-piperidyl]-7H-pyrrolo[2,3-d]pyrimidin-6-yl]benzenesulfonamide]: the IC50 was in the range of 1 to 10 µM.

`CNC(=O)c1cccc(-c2cc3c(N4CCC(c5nc(C)c(-c6ccccc6)[nH]5)CC4)ncnc3[nH]2)c1` [P-3049, N-methyl-3-[4-[4-(4-methyl-5-phenyl-1H-imidazol-2-yl)-1-piperidyl]-7H-pyrrolo[2,3-d]pyrimidin-6-yl]benzamide] displayed a half-inhibitory concentration (IC50) of 1 to 10 µM.

Consider `Cc1nc(C2CCN(c3ncnc4[nH]c(-c5cnn(C(F)F)c5)cc34)CC2)[nH]c1-c1ccccc1` [P-3050, 6-[1-(difluoromethyl)pyrazol-4-yl]-4-[4-(4-methyl-5-phenyl-1H-imidazol-2-yl)-1-piperidyl]-7H-pyrrolo[2,3-d]pyrimidine], for which the IC50 lay in the range of 0.0001 to 1 µM.

`Cc1nc(C2CCN(c3ncnc4[nH]c(-c5cccc(S(N)(=O)=O)c5)cc34)CC2)[nH]c1-c1ccccc1` [P-3051, 3-[4-[4-(4-methyl-5-phenyl-1H-imidazol-2-yl)-1-piperidyl]-7H-pyrrolo[2,3-d]pyrimidin-6-yl]benzenesulfonamide] returned an IC50 of 0.0001 to 1 µM.

Take `COc1ccc(-c2[nH]c(C3(C)CCN(c4ncnc5[nH]c(-c6ccc(F)cc6)cc45)CC3)nc2C)cc1C` [P-3052, 6-(4-fluorophenyl)-4-[4-[5-(4-methoxy-3-methyl-phenyl)-4-methyl-1H-imidazol-2-yl]-4-methyl-1-piperidyl]-7H-pyrrolo[2,3-d]pyrimidine]: the IC50 was 0.0001 to 1 µM.

In turn, `COc1ccc(-c2[nH]c(C3(C)CCN(c4ncnc5[nH]c(-c6ccc(C#N)cc6)cc45)CC3)nc2C)cc1C` [P-3053, 4-[4-[4-[5-(4-methoxy-3-methyl-phenyl)-4-methyl-1H-imidazol-2-yl]-4-methyl-1-piperidyl]-7H-pyrrolo[2,3-d]pyrimidin-6-yl]benzonitrile] gave a 50% inhibitory concentration (IC50) of 0.0001 to 1 µM.

`COc1cc(-c2cc3c(N4CCC(C)(c5nc(C)c(-c6ccc(OC)c(C)c6)[nH]5)CC4)ncnc3[nH]2)ccn1` [P-3054, 4-[4-[5-(4-methoxy-3-methyl-phenyl)-4-methyl-1H-imidazol-2-yl]-4-methyl-1-piperidyl]-6-(2-methoxy-4-pyridyl)-7H-pyrrolo[2,3-d]pyrimidine] gave a half-inhibitory concentration (IC50) of 0.0001 to 1 µM.

The compound `CCC1(c2nc(C)c(-c3ccc(OC)cc3)[nH]2)CCN(c2ncnc3[nH]c(-c4ccc(F)cc4)cc23)CC1` [P-3055, 4-[4-ethyl-4-[5-(4-methoxyphenyl)-4-methyl-1H-imidazol-2-yl]-1-piperidyl]-6-(4-fluorophenyl)-7H-pyrrolo[2,3-d]pyrimidine] returned a concentration for half-maximal inhibition (IC50) of 0.0001 to 1 µM.

Turning to `CCC1(c2nc(C)c(-c3ccc(OC)c(C)c3)[nH]2)CCN(c2ncnc3[nH]c(-c4ccc(F)cc4)cc23)CC1` [P-3056, 4-[4-ethyl-4-[5-(4-methoxy-3-methyl-phenyl)-4-methyl-1H-imidazol-2-yl]-1-piperidyl]-6-(4-fluorophenyl)-7H-pyrrolo[2,3-d]pyrimidine], the IC50 was in the range of 0.0001 to 1 µM.

Turning to `Cc1nc(C2(C)CCN(c3ncnc4[nH]c(-c5ccc(F)cc5)cc34)CC2)[nH]c1-c1ccc(F)cc1` [P-3057, 6-(4-fluorophenyl)-4-[4-[5-(4-fluorophenyl)-4-methyl-1H-imidazol-2-yl]-4-methyl-1-piperidyl]-7H-pyrrolo[2,3-d]pyrimidine], the IC50 lay in the range of 0.0001 to 1 µM.

Turning to `Cc1nc(C2(C)CCN(c3ncnc4[nH]c(-c5ccc(F)cc5)cc34)CC2)[nH]c1-c1ccc(Cl)cc1` [P-3058, 4-[4-[5-(4-chlorophenyl)-4-methyl-1H-imidazol-2-yl]-4-methyl-1-piperidyl]-6-(4-fluorophenyl)-7H-pyrrolo[2,3-d]pyrimidine], the IC50 was in the range of 0.0001 to 1 µM.

`CCc1ccc(-c2[nH]c(C3CCN(c4ncnc5[nH]c(-c6ccnc(OC)c6)cc45)CC3)nc2C)cc1` [P-3059, 4-[4-[5-(4-ethylphenyl)-4-methyl-1H-imidazol-2-yl]-1-piperidyl]-6-(2-methoxy-4-pyridyl)-7H-pyrrolo[2,3-d]pyrimidine] showed an IC50 of 0.0001 to 1 µM.

Compound `CCc1ccc(-c2[nH]c(C3CCN(c4ncnc5[nH]c(-c6ccc(F)cc6)cc45)CC3)nc2C)cc1` [P-3060, 4-[4-[5-(4-ethylphenyl)-4-methyl-1H-imidazol-2-yl]-1-piperidyl]-6-(4-fluorophenyl)-7H-pyrrolo[2,3-d]pyrimidine] returned a 50% inhibitory concentration (IC50) of 0.0001 to 1 µM.

As to `CCc1ccc(-c2[nH]c(C3CCN(c4ncnc5[nH]c(-c6ccc(C#N)cc6)cc45)CC3)nc2C)cc1` [P-3061, 4-[4-[4-[5-(4-ethylphenyl)-4-methyl-1H-imidazol-2-yl]-1-piperidyl]-7H-pyrrolo[2,3-d]pyrimidin-6-yl]benzonitrile], the IC50 lay within 0.0001 to 1 µM.

`Cc1ccc(-c2[nH]c(C3CCN(c4ncnc5[nH]c(-c6ccc(F)cc6)cc45)CC3)nc2C)cc1` [P-3062, 6-(4-fluorophenyl)-4-[4-[4-methyl-5-(p-tolyl)-1H-imidazol-2-yl]-1-piperidyl]-7H-pyrrolo[2,3-d]pyrimidine] displayed an IC50 of 0.0001 to 1 µM.

`COc1ccc(-c2[nH]c(C3(C)CCN(c4ncnc5[nH]c(C)cc45)CC3)nc2C)cc1` [P-3063, 4-[4-[5-(4-methoxyphenyl)-4-methyl-1H-imidazol-2-yl]-4-methyl-1-piperidyl]-6-methyl-7H-pyrrolo[2,3-d]pyrimidine]: the half-maximal inhibitory concentration (IC50) lay within 1 to 10 µM.

Compound `Cc1cc2c(N3CCC(C)(c4nc(C)c(-c5ccc(F)cc5)[nH]4)CC3)ncnc2[nH]1` [P-3064, 4-[4-[5-(4-fluorophenyl)-4-methyl-1H-imidazol-2-yl]-4-methyl-1-piperidyl]-6-methyl-7H-pyrrolo[2,3-d]pyrimidine] came in with a concentration for half-maximal inhibition (IC50) of 1 to 10 µM.

The compound `CCOc1ccc(-c2[nH]c(C3CCN(c4ncnc5[nH]c(-c6ccc(F)cc6)cc45)CC3)nc2C)cc1C` [P-3065, 4-[4-[5-(4-ethoxy-3-methyl-phenyl)-4-methyl-1H-imidazol-2-yl]-1-piperidyl]-6-(4-fluorophenyl)-7H-pyrrolo[2,3-d]pyrimidine] displayed a 50% inhibitory concentration (IC50) of 0.0001 to 1 µM.

Take `CCOc1ccc(-c2[nH]c(C3CCN(c4ncnc5[nH]c(-c6ccc(C#N)cc6)cc45)CC3)nc2C)cc1C` [P-3066, 4-[4-[4-[5-(4-ethoxy-3-methyl-phenyl)-4-methyl-1H-imidazol-2-yl]-1-piperidyl]-7H-pyrrolo[2,3-d]pyrimidin-6-yl]benzonitrile]: the IC50 lay in the range of 0.0001 to 1 µM.

Take `CCOc1ccc(-c2[nH]c(C3CCN(c4ncnc5[nH]c(-c6ccnc(OC)c6)cc45)CC3)nc2C)cc1C` [P-3067, 4-[4-[5-(4-ethoxy-3-methyl-phenyl)-4-methyl-1H-imidazol-2-yl]-1-piperidyl]-6-(2-methoxy-4-pyridyl)-7H-pyrrolo[2,3-d]pyrimidine]: the IC50 lay within 0.0001 to 1 µM.

Take `Cc1nc(C2CCN(c3ncnc4[nH]c(-c5ccc(F)cc5)cc34)CC2)[nH]c1-c1ccc2c(c1)OCO2` [P-3068, 4-[4-[5-(1,3-benzodioxol-5-yl)-4-methyl-1H-imidazol-2-yl]-1-piperidyl]-6-(4-fluorophenyl)-7H-pyrrolo[2,3-d]pyrimidine]: the IC50 was in the range of 0.0001 to 1 µM.

In turn, `Cc1nc(C2CCN(c3ncnc4[nH]c(-c5ccc(C#N)cc5)cc34)CC2)[nH]c1-c1ccc2c(c1)OCO2` [P-3069, 4-[4-[4-[5-(1,3-benzodioxol-5-yl)-4-methyl-1H-imidazol-2-yl]-1-piperidyl]-7H-pyrrolo[2,3-d]pyrimidin-6-yl]benzonitrile] had a 50% inhibitory concentration (IC50) of 0.0001 to 1 µM.

For `COc1cc(-c2cc3c(N4CCC(c5nc(C)c(-c6ccc7c(c6)OCO7)[nH]5)CC4)ncnc3[nH]2)ccn1` [P-3070, 4-[4-[5-(1,3-benzodioxol-5-yl)-4-methyl-1H-imidazol-2-yl]-1-piperidyl]-6-(2-methoxy-4-pyridyl)-7H-pyrrolo[2,3-d]pyrimidine], the concentration for half-maximal inhibition (IC50) is 0.0001 to 1 µM.

`CC(=O)Nc1cccc(-c2cc3c(N4CCC(c5nc(C)c(-c6ccccc6)[nH]5)CC4)ncnc3[nH]2)c1` [P-3071, N-[3-[4-[4-(4-methyl-5-phenyl-1H-imidazol-2-yl)-1-piperidyl]-7H-pyrrolo[2,3-d]pyrimidin-6-yl]phenyl]acetamide] came in with a half-maximal inhibitory concentration (IC50) of 0.0001 to 1 µM.

`COc1ccc(-c2cc3c(N4CCC(c5nc(C)c(-c6ccccc6)[nH]5)CC4)ncnc3[nH]2)cn1` [P-3072, 6-(6-methoxy-3-pyridyl)-4-[4-(4-methyl-5-phenyl-1H-imidazol-2-yl)-1-piperidyl]-7H-pyrrolo[2,3-d]pyrimidine] displayed an IC50 of 1 to 10 µM.

In turn, `Cc1nn(C)cc1-c1cc2c(N3CCC(c4nc(C)c(-c5ccccc5)[nH]4)CC3)ncnc2[nH]1` [P-3073, 6-(1,3-dimethylpyrazol-4-yl)-4-[4-(4-methyl-5-phenyl-1H-imidazol-2-yl)-1-piperidyl]-7H-pyrrolo[2,3-d]pyrimidine] yielded an IC50 of 0.0001 to 1 µM.

`Cc1ccc(-c2cc3c(N4CCC(c5nc(C)c(-c6ccccc6)[nH]5)CC4)ncnc3[nH]2)cn1` [P-3074, 4-[4-(4-methyl-5-phenyl-1H-imidazol-2-yl)-1-piperidyl]-6-(6-methyl-3-pyridyl)-7H-pyrrolo[2,3-d]pyrimidine] had an IC50 of 0.0001 to 1 µM.

The record behind these values is US9771369B2, “Compounds and methods for kinase modulation, and indications therefor” (Plexxikon Inc., priority 2014, dated 2017).
